Measurements from patent publication US20250179077A1, “QUINAZOLINE COMPOUNDS AND USES THEREOF AS INHIBITORS OF MUTANT KRAS PROTEINS” (AMGEN INC., priority 2022, published 2025).

Experiments:
[1] = molecular target: His-tagged KRAS G12D protein (Homo sapiens, UniProt P01116, G12D); test: KRAS G12D TR-FRET Assay; assay type: binding
Method in brief: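 His-KRAS G12D (20 nM) was preincubated with titrated compound for 30 min at RT in HEPES pH 7.4 buffer with MgCl2, 10 μM GDP. Biotin-KRPep-2d (20 nM) was then added for 1 h, followed by Eu-anti-His/streptavidin-d2 for 1 h. The 665/615 nm TR-FRET ratio was fitted 4-parameter to give IC50.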

[2] = molecular target: GDP-bound KRAS protein (aa 1-169), containing both G12D and C118A amino acid substitutions (Homo sapiens, UniProt P01116, C118A/G12D); test: KRAS G12D Coupled Nucleotide Exchange Assay; assay type: biochemical
GDP-bound KRAS protein (aa 1-169), containing both G12D and C118A amino acid substitutions, sequence (P01116 1-169 isoform P01116-2 G12D/C118A): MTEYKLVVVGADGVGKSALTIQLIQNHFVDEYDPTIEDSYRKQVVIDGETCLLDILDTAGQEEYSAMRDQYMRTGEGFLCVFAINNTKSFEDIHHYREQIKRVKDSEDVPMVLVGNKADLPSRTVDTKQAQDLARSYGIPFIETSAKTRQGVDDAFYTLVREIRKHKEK
Protocol: KRAS G12D Coupled Nucleotide Exchange Assay
Following compound pre-incubation, purified SOS protein (aa 564-1049) and GTP (Roche 10106399001) were added to the assay wells and incubated for an additional 30 min. […] The assay plates were then read on a PerkinElmer EnVision Multilabel Reader, using AlphaScreen® technology, and data were analyzed using a 4-parameter logistic model to calculate IC50 values.

[3] = test system: Phosphorylation of ERK1/2 in AsPC-1 cells; test: Phospho-ERK1/2 MSD Assay; assay type: cell-based; conditions: Homo sapiens, ASPC1, 2 h, read-out: 2 h p-ERK (AsPC-1 cells), IC50, AsPC-1 cells, 2 h compound treatment
Method in brief: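 Phospho-ERK1/2 was quantified by MSD whole-cell lysate immunoassay in RIPA lysates made with protease/phosphatase inhibitors. A 4-parameter logistic model gave IC50.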

His-tagged KRAS G12D protein, sequence (P01116 1-188 isoform P01116-2 G12D): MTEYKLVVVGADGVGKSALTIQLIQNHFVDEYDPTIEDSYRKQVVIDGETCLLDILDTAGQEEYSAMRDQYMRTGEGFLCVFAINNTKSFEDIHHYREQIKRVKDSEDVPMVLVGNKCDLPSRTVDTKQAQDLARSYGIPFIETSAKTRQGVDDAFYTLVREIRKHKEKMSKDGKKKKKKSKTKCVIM

Work on `CCc1c(F)ccc2cc(O)cc(-c3c(F)cc4c(N5CCC[C@]6(C5)C[C@@H](O)C6)nc(OC[C@@]56CCCN5C[C@H](F)C6)nc4c3F)c12` (single isomer, unassigned) [Example 91] yielded an IC50 [1] of 5 nM, an IC50 [2] of 3 nM and an IC50 [3] of 16 nM.
